Entries after “also recorded” stand apart in the source; their conditions may differ.
Experiments:
[1] = tested on: C57BL/6J mice, caerulein-evoked acute pancreatitis; assay: Caerulein-evoked acute pancreatitis mouse model; assay type: in vivo; conditions: 10 mg/kg i.p., 30 min before caerulein
Method: C57BL/6J male mice 8-10 weeks of age were subjected to acute pan-creatitis by intraperitoneal injections of supramaximal doses of caerulein (50 μg/kg) every hour for a total of 6 h, as previously described in^61. Control animals received 25% DMSO-saline solution by intraperitoneal injection every hour for 6 h. Compound 16-8 was dissolved in this vehicle (10 mg/kg) and injected i.p. 30 min prior to the first injection of caerulein. Animals were sacrificed 1 h after the last injection. Blood was collected and pancreatic tissue was promptly isolated, weighed for determination of pancreas wet weight/body weight ratio. Samples of tis-sues were fixed overnight in 10% neutral-buffered formalin, paraffin embedded and H&E-stained, or pancreatic tissue was quickly frozen and assessed for myeloperoxidase (MPO) activity. Serum amylase, MPO and histologic evaluation were conducted as described previously^61.
Assessment of nocifensive behavior^8: Mice were housed in individual cages and video-recorded during the entire experiment. Two mice at a time were observed. Linear movement was measured as one event when mice passed through the median plane of the cage. Analysis began immediately after the first caerulein/vehicle injec-tion and continued until the end of the experiment. Results were expressed as the sum of the movement events spanning the 6 h time-period following the first injection.

[2] = target: TRPV4 (Homo sapiens, UniProt Q9HBA0); assay: UVB-evoked Ca++ transient in TRPV4-transfected HEK293T cells; assay type: cell-based; design: expressed in transfected cells; conditions: preexposure to 20 μM GSK205
Chain of TRPV4 (Q9HBA0 whole entry, species assumed): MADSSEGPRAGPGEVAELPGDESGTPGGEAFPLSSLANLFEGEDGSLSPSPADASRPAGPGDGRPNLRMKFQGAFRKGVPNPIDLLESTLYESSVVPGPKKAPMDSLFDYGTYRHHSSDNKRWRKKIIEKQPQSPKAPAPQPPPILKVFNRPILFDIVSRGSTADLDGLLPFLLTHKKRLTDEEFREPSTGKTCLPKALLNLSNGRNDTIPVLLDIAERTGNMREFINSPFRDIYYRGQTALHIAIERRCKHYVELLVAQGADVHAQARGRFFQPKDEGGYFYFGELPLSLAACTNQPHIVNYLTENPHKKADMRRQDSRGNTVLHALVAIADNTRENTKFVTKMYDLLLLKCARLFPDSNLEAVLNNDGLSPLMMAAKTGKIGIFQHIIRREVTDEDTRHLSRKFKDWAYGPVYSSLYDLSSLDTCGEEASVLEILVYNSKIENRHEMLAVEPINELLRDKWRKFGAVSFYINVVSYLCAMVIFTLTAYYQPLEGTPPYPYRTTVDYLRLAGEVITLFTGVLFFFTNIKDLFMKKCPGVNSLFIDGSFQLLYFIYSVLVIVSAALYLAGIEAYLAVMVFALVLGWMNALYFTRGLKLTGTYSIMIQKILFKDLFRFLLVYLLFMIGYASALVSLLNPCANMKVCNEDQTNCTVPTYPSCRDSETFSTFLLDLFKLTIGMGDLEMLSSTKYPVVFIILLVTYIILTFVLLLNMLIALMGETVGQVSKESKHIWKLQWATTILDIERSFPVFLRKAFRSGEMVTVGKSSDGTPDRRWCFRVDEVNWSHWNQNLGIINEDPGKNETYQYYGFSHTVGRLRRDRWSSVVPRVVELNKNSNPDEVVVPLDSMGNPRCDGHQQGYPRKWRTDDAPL
Text: (FIG. 2B) Focusing properties of the ball lens. […] (FIG. 2E) TRPV3 activation experiment. […] (FIG. 2F) TRPV4 selective activator GSK101-related findings.
To assess whether TRPV4 is sufficient for the UVB-evoked Ca++ influx, we introduced high levels of TRPV4 into HEK293 epithelial cells. TRPV4 expression endowed these cells with the ability to generate robust Ca++ signaling in response to UVB (FIG. 2G). Moreover, if they were pre-exposed to GSK205, the response was blocked. Thus, heterologous TRPV4 expression is sufficient for UVB radiation to cause a cellular Ca++ transient.

[3] = tested on: primary mouse keratinocytes (1° MK); assay: ET1 immunocytochemistry in UVB-exposed primary mouse keratinocytes; assay type: cell-based; conditions: 295 nm UVB-LED
Method: 1° MK were exposed to UVB using the UV optical system (295 nm LED). 24 hours later the cells were fixed and fluorescently immunolabeled for ET1. Digital images were captured and subjected to morphometry.
Mouse keratinocytes were cultured on collagen coated quartz coverslips and then stimulated from the bottom using the previously mentioned UV optical system using the 295 nm LED. 24 hours later the cells were fixed in 4% formaldehyde in PBS for 20 minutes, permeabilized with 0.1% Triton X-100 in PBS for 10 minutes, washed, then blocked in 10% normal goat serum in PBS for 45 minutes. Coverslips were incubated overnight with primary antibody mouse anti-ET1 (1:200; Abcam), washed three times in PBS and incubated with secondary antibody for 2 hours at 25° C. Coverslips were washed three times in PBS, once with double-distilled H2O. Digital images were captured using a 40× immersion lens on the BX61 Olympus upright microscope. Morphometric analysis was conducted using ImageJ freeware with tailored regions-of-interest.

[4] = tested on: primary mouse keratinocytes (1° MK); assay: ET1 secretion by non-stimulated primary mouse keratinocytes (ELISA); assay type: cell-based
Method: FIGS. 8A-8D: Central role for KC TRPV4 in UVB-evoked Ca^++ signaling and nocifensive behavior—ET1-related supplementary findings. (FIG. 8A) Augmentation of GSK101-evoked Ca^++ signaling by ET1. Shown are averaged Ca^++ measurements (fura-2) in response to 5 nM GSK101. Note the increase in signal in response to co-exposure to ET1. (FIG. 8B) ET1 secretion by non-stimulated 1° MK depends on TRPV4 and PLC. Shown are relative ET1 concentrations (determined by ELISA, pg/mL; vehicle-treated and WT control normalized to 100) in supernatant of non-stimulated 1° MK. Note the clear dependence on TRPV4, as indicated by a 50% reduction in Trpv4^−/− 1° MK. […] There is also down-regulation of ET1 secretion by a specific inhibitor of PLC (U73122), and by an ET-convertase inhibitor, CGS35066, which served as a control compound. In addition, PLC-inhibitor robustly affects ET1 secretion in WT and Trpv4^−/− 1° MK. (FIG. 8C) ET1 expression by UVB-exposed 1° MK depends on TRPV4 and PLC—immunocytochemistry. Shown is specific ET1 immunolabeling in 1° MK, exposed to UVB using the UVB-LEDs, as for Ca^++ imaging. Use of the UVB-LED device precluded application of a ET1 ELISA, only irradiated cells could be examined. […] (FIG. 8D) ET1 expression by UVB-exposed 1° MK depends on TRPV4 and PLC—quantification of immunocytochemistry.

[5] = tested on: mice, UVB-exposed hind paws; assay: UVB-evoked nocifensive behavior after topical GSK205 (Hargreaves, von Frey); assay type: in vivo, mouse
Method: Behavioral tests were performed to evaluate the decrease in withdrawal thresholds in response to mechanical von Frey hair or thermal stimuli applied to hind paws. […]. These withdrawal thresholds were ascertained before and after UV exposure. Mice were exposed using a Bio Rad Gel Doc 2000 UV transilluminator (302 nm) for 5 minutes with an exposure of 600 mJ/cm^2, 3-5 days after the last application of tamoxifen/oil.
GSK205 topical treatment: A viscous solution of 68% EtOH/5% glycerol plus 1 mM or 5 mM GSK205 (none for control) was applied to hindpaws by rubbing in 20 μL, applied at time-points 1 hour and again 10 min before UV exposure.
Behavioral tests were performed to evaluate the decrease in withdrawal thresholds in response to mechanical or thermal stimuli applied to hind paws. These withdrawal thresholds were ascertained before and after UVB exposure. Mice were confined by plexi-glass enclosures on top of 25×26 cm Bio Rad Gel Doc 2000 UV transilluminator (302 nm), and otherwise allowed to openly explore this environment. UV-exposure lasted for 5 minutes with an exposure of 600 mJ/cm^2.
Hindpaw mechanical withdrawal thresholds were determined by the automated von Frey hair method, using a 0.5 mm diameter stainless steel filament, part of an automated plantar touch stimulator (Ugo Basile, Modena, Italy). Relevant detail included pre-test acclimatization in a quiet room for 30 min, conducting the test at the same time of day and blinded observers. The stimulus was delivered to the hindpaw, automatically discontinued upon withdrawal, and its intensity recorded automatically. 6-8 trials per animal were conducted, with equal exposure of both hindpaws, leading to an average withdrawal threshold. Results are reported as […], which was calculated by subtracting post-treatment from pre-treatment measurements, expressed as % or relative to 1.0.
Hindpaw thermal (hot) withdrawal thresholds were determined by the well-established Hargreaves' method, using an infra-red thermal stimulation device that delivers the stimulus from underneath the hindpaw combined with automatic shut-off upon withdrawal (Ugo Basile). Stimulation and measurements were conducted as described for von Frey hair testing. A cutoff of 20 sec was set to prevent tissue damage.

CN(CCc1ccc(Nc2nc(-c3ccccc3)cs2)cc1)Cc1ccccc1 [Compound 16-8]
histopathological score for pancreas inflammation [1]: significantly reduced | myelo-peroxidase content of the pancreas [1]: significantly reduced | pain behavior (movement events over 6 h) [1]: virtually eliminated | pancreatic edema [1]: virtually eliminated | serum amylase [1]: significantly reduced; also recorded: reduced, but not significantly

CN(CCc1ccc(Nc2nc(-c3cccnc3)cs2)cc1)Cc1ccccc1 [GSK205]
UVB-evoked Ca++-signal in TRPV4-transfected HEK293T cells [2]: virtually eliminates | ET1 immunoreactivity in UVB-exposed 1° MK [3]: significant down-regulation | ET1 secretion, supernatant of non-stimulated 1° MK [4]: significant down-regulation | delay in thermal hypersensitivity after UVB ([5]; topical 1 mM GSK205, WT mice): ~24 h | off-target effects on withdrawal behavior ([5]; topical 5 mM GSK205, Trpv4−/− mice vs vehicle): did not elicit off-target effects | sensitivity to von Frey hair mechanical stimulation after UVB ([5]; topical 5 mM GSK205, WT mice): significantly reduced sensitivity | thermally-evoked nocifensive behavior after UVB ([5]; topical 5 mM GSK205, WT mice): sustained attenuation

Source: patent US11564911B2, “Small molecule dual-inhibitors of TRPV4 and TRPA1 for sanitizing and anesthetizing” (Duke University, priority 2016, dated 2023)
